What was measured:
granuloma formation = assay: cotton granuloma assay, topical anti-inflammatory activity; format: in vivo, rat (adult female albino, Sprague-Dawley); design: key: relative potency; comparison steroid = 1; conditions: 20-2-0.2 mcg/cotton pellet, 7 days; for Anti-inflammatory activity (*): (*) in comparison with Fluocinolone acetonide; for Anti-inflammatory activity (**): (**) in comparison with Dexamethasone 21-acetate
Experimental: (§1) The topical anti-inflammatory activity of the new compounds of this invention was determined using the cotton granuloma assay. This test was performed according to C. A. Winter and C. C. Porter J. Am. Pharm. Ass. Sci., Ed. 46, 515. 1957 using adult female albino rats (Sprague-Dawley) average body weight 150 grams. 8 animals per group.
(§2) The method consists in the subcutaneous implantation in the dorsal region of 2 sterile cotton pelletts. The pellets employed were 5 mm section cut from dental cotton rolls weighing about 45 mg each. The tested compound dissolved in ethyl alcohol, was absorbed on the pellets before implantation. Fluocinolone acetonide and Dexamethasone-21-acetate was used as comparison products and their activities were conventionally taken equal to 1 for each of the various parameters herein considered. Comparison substance and tested new compounds were absorbed on the pellets at the following scalar dosage per each pellet: 20-2-0.2 mcg/cotton pellet. For the controls the pellets were soakened in the pure solvent (ethyl alcohol) and then dried as usually.
After seven days the animals were sacrified. The pellets were removed and the exudate weights were recorded as a measure of the granuloma formation. The degree of granuloma inhibition reflects the anti-inflammatory activity of the tested compounds.
(§3) In the following Table 1. there are reported the achieved results with regard to the anti-inflammatory activity, the thymolitic activity, and the LD50 values: […]

LD50 (acute toxicity) = conditions: in vivo, topical or ocular; Table 1, topical administration
Source text: as §3

[1] = thymolytic activity (topical administration); format: in vivo, rat (adult female albino, Sprague-Dawley)
Experimental: as §1, §2, §3

[2] = tested on: vasoconstrictive activity, human volunteers; assay: vasoconstrictive activity in human volunteers (McKenzie and Stoughton's test or Falconi and Rossi's Paper-Patch Test); format: in vivo; conditions: for vasoconstrictive activity (in words): human volunteers
Source text: Some of the esters have been tested in human volunteers for their vasoconstrictive activity using the McKenzie and Stoughton's test (1) or the Falconi and Rossi's Paper-Patch Test (2) in comparison with a known anti-inflammatory corticosteroid, namely fluocinolone acetonide.
In the first experiment 2 dilutions of 4 esters have been tested on volunteers and 10 dilutions have been applied for each subject.
1. Mc Kenzie, A.W., Stoughton, R.B.: Method for comparing percutaneous
absorption of Steroids. Arch. Derm. 86, 608, 1962.
vasoconstrictive activity of Corticosteroids. Arch. Derm. 105, 856, 1972.

[3] = topical, relative, comparison product conventionally equal to 1 (Dexamethasone 21-acetate = 1)
[4] = Table 2, first trial, dilution 10^4
[5] = Table 2, first trial, dilution 10^5
[6] = Table 2a, second trial, dilution 10^3
[7] = Table 2a, second trial, dilution 10^4
[8] = Table 2a, second trial, dilution 10^5
[9] = Table 2a, second trial, dilution 10^6

Row | Compound | Anti-inflammatory activity (*) (granuloma formation) | Anti-inflammatory activity (**) (granuloma formation) | LD50 (LD50 (acute toxicity)) [mg/kg] | Thymolytic activity [1, 3] | % Positive [2, 4] [%] | Results (Positive/No. of subjects) [2, 4] | % Positive [2, 5] [%] | Results (Positive/No. of subjects) [2, 5] | further results
1 | CC(=O)OCC(=O)[C@@]12NN=C[C@@H]1C[C@H]1[C@@H]3C[C@H](F)C4=CC(=O)C=C[C@]4(C)[C@@]3(F)[C@@H](O)C[C@@]12C [16,17 M Dif-AC, 16α,17α-Isopyrazolino-1,4-pregnadiene-6α,9α-difluoro-11β,21-diol-3,20-dione 21-acetate] | > 10 | > 20 | 1120 | 0.26 |  |  |  |  | 
2 | CC(=O)OCC(=O)[C@@]12NN=C[C@@H]1C[C@H]1[C@@H]3CCC4=CC(=O)C=C[C@]4(C)[C@@]3(F)[C@@H](O)C[C@@]12C [16-17 MF-AC, 16α,17α-Isopyrazolino-1,4-pregnadiene-9α-fluoro-11β,21-diol-3,20-dione-21-acetate] | > 10 | > 20 | > 2000 | 0.02 |  |  |  |  | 
3 | CC(C)(C)C(=O)OCC(=O)[C@@]12NN=C[C@@H]1C[C@H]1[C@@H]3C[C@H](F)C4=CC(=O)C=C[C@]4(C)[C@@]3(F)[C@@H](O)C[C@@]12C [16-17-M-Dif-Piv, 16α,17α-Isopyrazolino-1,4-pregnadiene-6α,9α-difluoro-11β,21-diol-3,20-dione-21-pivalate] |  |  |  |  | 20 | 1/5 | 0 | 0/5 | 
4 | CCCCC(=O)OCC(=O)[C@@]12NN=C[C@@H]1C[C@H]1[C@@H]3C[C@H](F)C4=CC(=O)C=C[C@]4(C)[C@@]3(F)[C@@H](O)C[C@@]12C [16-17-M-Dif-Va, 16α,17α-Isopyrazolino-1,4-pregnadiene-6α,9α-difluoro-11β,21-diol-3,20-dione-21-valerate] |  |  |  |  | 100 | 5/5 | 40 | 2/5 | % Positive [2, 6]: 100%; Results (Positive/No. of subjects) [2, 6]: 5/5; % Positive [2, 7]: 80%; Results (Positive/No. of subjects) [2, 7]: 4/5; % Positive [2, 8]: 80%; Results (Positive/No. of subjects) [2, 8]: 4/5; % Positive [2, 9]: 60%; Results (Positive/No. of subjects) [2, 9]: 3/5; vasoconstrictive activity (in words) [2]: showed the best activity in the first trial; vasoconstrictive activity (in words) ([2]; listed as 16-17-Dif-Va): showed the same potency as fluocinolone acetonide even at the lower concentrations employed in the trials
5 | CC(=O)OCC(=O)[C@@]1(O)[C@H](C)C[C@H]2[C@@H]3CCC4=CC(=O)C=C[C@]4(C)[C@@]3(F)[C@@H](O)C[C@@]21C [Dexamethasone 21-acetate, reference compound] | 1 | 1 | 259 |  |  |  |  |  | Thymolytic activity ([1]; rat, in vivo): 1
6 | CCCC(=O)OCC(=O)[C@@]12NN=C[C@@H]1C[C@H]1[C@@H]3C[C@H](F)C4=CC(=O)C=C[C@]4(C)[C@@]3(F)[C@@H](O)C[C@@]12C [Example 16-17-Dif-Bu, 16α,17α-Isopyrazolino-1,4-pregnadiene-6α,9α-difluoro-11β,21-diol-3,20-dione-21-butyrate] |  |  |  |  | 60 | 3/5 | 20 | 1/5 | 
7 | CCCCC(=O)OCC(=O)[C@@]12NN=C[C@@H]1C[C@H]1[C@@H]3CCC4=CC(=O)C=C[C@]4(C)[C@@]3(F)[C@@H](O)C[C@@]12C [Example 16-17-M-F-Va, 16α,17α-Isopyrazolino-1,4-pregnadiene-9α-fluoro-11β,21-diol-3,20-dione-21-valerate] |  |  |  |  | 100 | 5/5 | 40 | 1/5 | 
8 | CC1(C)O[C@@H]2C[C@H]3[C@@H]4C[C@H](F)C5=CC(=O)C=C[C@]5(C)[C@@]4(F)[C@@H](O)C[C@]3(C)[C@]2(C(=O)CO)O1 [Fluocinolone acetonide, reference compound] | 2 | 2 | 166 |  | 100 | 5/5 | 60 | 3/5 | Thymolytic activity ([1]; rat, in vivo): 0.83
9 | CC(=O)OCC(=O)[C@@]12N=NC[C@@H]1C[C@H]1[C@@H]3C[C@H](F)C4=CC(=O)C=C[C@]4(C)[C@@]3(F)[C@@H](O)C[C@@]12C [Pyr Dif-AC, 16α,17α-Pyrazolino-1,4-pregnadiene-6α,9α-difluoro-11β,21-diol-3,20-dione 21-acetate] | > 10 | > 20 | 439 | 0.52 |  |  |  |  | 
10 | CC(=O)OCC(=O)[C@@]12N=NC[C@@H]1C[C@H]1[C@@H]3CCC4=CC(=O)C=C[C@]4(C)[C@@]3(F)[C@@H](O)C[C@@]12C [Pyr-F-Ac, 16α,17α-Pyrazolino-1,4-pregnadiene-9α-fluoro-11β,21-diol-3,20-dione-21-acetate] | ≥ 10 | ≥ 20 | 721 | 0.14 |  |  |  |  | 
11 | CC1(C)O[C@@H]2C[C@H]3[C@@H]4CCC5=CC(=O)C=C[C@]5(C)[C@@]4(F)[C@@H](O)C[C@]3(C)[C@]2(C(=O)CO)O1 [Triamcinolone acetonide, reference compound] |  |  |  |  |  |  |  |  | % Positive [2, 6]: 100%; Results (Positive/No. of subjects) [2, 6]: 5/5; % Positive [2, 7]: 100%; Results (Positive/No. of subjects) [2, 7]: 5/5; % Positive [2, 8]: 60%; Results (Positive/No. of subjects) [2, 8]: 3/5; % Positive [2, 9]: 40%; Results (Positive/No. of subjects) [2, 9]: 2/5

Reference: patent publication US4232013A, “16,17-Pyrazolino- and 16,17-isopyrazolino-1,4-pregnadiene derivatives” (Lark S.p.A., priority 1977, dated 1980)
